Reference: patent US20180118721A1, “PYRIMIDINE DERIVATIVES” (Merck Patent GmbH, priority 2015, published 2018)
Like-named read-outs stand apart in the source and are kept apart here.

How the values were obtained:
[1] = Microsomal stability (intrinsic clearance), mouse; assay type: in vitro ADME; conditions: mouse liver microsomes, 0.5 mg/ml protein, Clint
Excerpt: (§1) A microsomal stability assay is used to measure in vitro clearance (Clint). The assay involves measuring the rate of disappearance of a compound due to its intrinsic attitude to be metabolized (“intrinsic” meaning that the disappearance is not affected by other properties like permeability, binding etc. that play a role when quantifying in vivo clearance). The microsomal stability (intrinsic clearance, Clint) and thus metabolic stability is generally given as μl/min/mg protein. It can be visualized as the volume of solution that 1 mg of microsomes is able to clear of the compound in one minute.
(§2) A Tecan Genesis workstation (RSP 150/8) was used for to perform the microsomal incubations. Analysis was carried out using a Waters ACQUITY UPLC system coupled to an ABSciex API3000 mass spectrometer. Data analysis was performed using Assay Explorer (Symyx).
(§3) Column: Acquity UPLC BEH C18, 2.1×50 mm, 1.7 μm (Waters) Mobile phases: A=0.1% formic acid in water; B=acetonitrile
(§4) Flow rate: 0.750 mL/min; Detection: ESI, MRM; Injection: 10 μL; Column temperature: 50° C.
(§5) • Potassium phosphate buffer: 0.05 M potassium phosphate buffer pH 7.4 containing 1 mM MgCl2 • NADPH (nicotinamide adenine dinucleotide phosphate): 22.5 mg NADPH-Na4 in 1.8 ml potassium phosphate buffer • Acetonitrile: 50 Vol % acetonitrile (1 volume acetonitrile, 1 volume water) • DMSO: 20 Vol % DMSO in water • Stock solution of 20 mg/ml human or mouse liver microsomes (protein)/ml in phosphate buffer • Stock solution of 10 mM compound in 100% DMSO
(§6) Dilution of test compounds was done in 2 steps starting from a 10 mM stock solution of the respective compound in 100% DMSO. First 4 μl stock solution was added to 196 μl of 20 Vol % DMSO. In a second step, 10 μl of the first dilution were added to 1590 μl potassium phosphate buffer to achieve a final concentration of 1.25 μM in the final compound dilution. Thus, the amount of organic solvent in the assay was kept to a minimum (<1%).
(§7) The human or mouse liver microsome (protein) solution to be used in the assay was prepared by mixing 750 μl stock solution (20 mg/ml) and 2250 μl potassium phosphate buffer to a final concentration of 5 mg/ml.
(§8) Incubation was carried out on a 96 deep well incubation plate. 160 μl per well of the final compound dilution were transferred onto the incubation plate. Four samples of each compound dilution were assayed. 20 μl/well liver microsome solution was added to each well and the samples were then preincubated for 5 min at 37° C. and 800 rpm agitation. Two reference compounds (verapamil and dextromethorphan) were used in parallel in every experiment and for each species (human or mouse microsomes) to ensure system performance and for comparison.
(§9) On a separate stop plate, 160 μl acetonitrile were added per well.
(§10) After preincubation, i.e. at time t1=0 minutes, 18 μl samples of incubated compound solution and were transferred and added per well (containing acetonitrile) on the stop plate to prevent a reaction (0 minutes control samples, 4 samples per compound). Equally, 18 μl samples of incubated reference compound solution were transferred and added per well (containing acetonitrile) on the stop plate at time t1=0 minutes and again after 30 minutes (t4), solubility and chemical stability of the compound were checked. […]

[2] = Microsomal stability (intrinsic clearance), human; assay type: in vitro ADME; conditions: human liver microsomes, 0.5 mg/ml protein, Clint
Excerpt: as §1, §2, §3, §4, §5, §6, §7, §8, §9, §10

[3] = target: T1, purified human recombinant MTH1 (human MTH1, residues 42-197) (Homo sapiens, UniProt P36639); experiment: MTH1 enzymatic assay (luminescence-based, PPiLight); assay type: biochemical
T1 construct: human MTH1, residues 42-197, Uniprot-ID: P36639, expressed in E. coli; made in house; host or cells: E. coli

[4] = Shake flask solubility measurement; assay type: physicochemical; conditions: aqueous buffer, thermodynamic from solid, phosphate buffer pH 7.4, 37° C.
Method: Compound solubility in aqueous solution is determined by a standard method in the art, the shake flask method. Solubility measurement is performed under equilibrium conditions at pH 7.4. Samples are prepared by dissolving an excess of the test compound in a phosphate buffer (made up of 3,954 g sodium hydrogenphosphate-monohydrate, 6,024 g sodium chloride, 950 ml ultrapure water and adjusted to pH 7.4 with 0.1 M NaOH or 0.1 M HCl). These samples are shaken at 37° C. with 450 rpm (shaker: TiMix control Bühler) for 24 h in total until equilibrium is reached. After 7 hours shaking, the pH value of the sample is controlled and adjusted, if necessary. It is also checked that the sample (test compound) is available in excess. Shortly before the end of 24 h, samples are checked again for pH and precipitate. At the end of 24 h and after separation of the solid by filtration, the concentration of the compound in the filtrate is determined by liquid chromatography using […] (LC-UV).
Sample preparation: Incubation hood: TH 15 Bühler; pH device 766 Calimatic Knick; pH electrode InLab 423 Mettler
Chromatography Conditions:
Column: Chromolith RP18e 100×3 mm
Wavelength range: 190-400 nm • select a suitable evaluation wavelength
Injection volume: Probe 5 μl and 15 μl; Standard 5 μl
Column stove temperature: 37° C.
Eluent A: water/formic acid (999:1; v/v)
Eluent B: acetonitrile/formic acid (999:1; v/v)

[5] = target: T2, humanMTH1 (aminoacids 42 to 197) (Homo sapiens, UniProt P36639); experiment: Binding affinities and kinetics on MTH1 surfaces by surface plasmon resonance (SPR); conditions: for Kd: SPR, Biacore4000, 25° C., Table 1, grouped, read-out: KD IC50; for residence time: on MTH1, calculated on the basis of the KD values
T2 construct: humanMTH1 (aminoacids 42 to 197); His tag at the N-terminus; purchased Abnova ab99390; host or cells: E. coli
Method: The SPR experiments were performed using a Biacore4000 instrument. […] HumanMTH1 was immobilized on Biacore CM5 chips at 25° C. and a flow rate of 10 μL/min using amine coupling at pH 5.5 and in presence of 1 μM MSC2567771B-1 according to Biacore's standard protocol. MTH1 was applied at a concentration of 10 μg/mL and depending on the duration of the injection time immobilization levels between 500 and 2,000 RU were obtained. Sample compounds were applied in form of titration series with a doubling of concentration at each subsequent injection. In general, 10 concentrations were injected covering a dilution range of 500 fold. Before and after each of these titration series the binding capability of the surface was controlled by the injection of the positive control S-Crizotinib at a fixed concentration of 2 μM. Kinetic titration experiments were performed at 25° C. with a flow rate of 30 μL/min, a sample contact time of 90 sec and a dissociation time of 420 sec in running buffer (20 mM Tris-HCl (Tris(hydroxymethyl)-aminomethane HCl) pH 7.40, 150 mM NaCl, 5 mM MgCl2, 1 mM DTT (dithiothreitol), 0.1 mM EGTA (ethylene glycol tetraacetic acid), 0.05% Tween 20) containing 2% DMSO (dimethyl sulfoxide). Buffer injections identical to the sample injections were executed at the beginning of the successive series for the purpose of double referencing. Solvent correction cycles (eight correction points, 1.4%-2.8% DMSO) were run at the same intervals. For surface conditioning ten start-up cycles (buffer injections) were run. Data points were collected at a sample rate of 10 Hz.
Data sets were processed and analyzed using the software Biacore4000 Evaluation, version 1.0. Solvent corrected and double-referenced association and dissociation phase data were fitted to a simple 1:1 interaction model with mass transport limitations.
Measured values are indicated as KD IC50 in the Table below.

[6] = 6 μM 8-oxo-dGTP, Table 1, grouped

Microsomal stability mouse [1] | Microsomal stability human [2] | IC50 [3, 6] | IC50 ([3]; Table 2) | solubility at 24 h [4] | Kd [5] | Compound | residence time ([5]; read-out: Residence time) | residence time [5]
 |  | 1 to 100 nM |  |  | 1 to 100 nM | C=CC(=O)Nc1ccc(CCNC(=O)C2CCN(c3cc(NC)nc(N)n3)CC2)cc1 [Example 113, 1-(2-Amino-6-methylamino-pyrimidin-4-yl)-piperidine-4-carboxylic acid [2-(4-acryloylamino-phenyl)-ethyl]-amide] |  | 
 |  | 1 to 100 nM |  |  | 1 to 100 nM | CNc1cc(N2C(=O)CCC2Cc2ccccc2)nc(N)n1 (stereo not shown) [Example 114, 1-(2-Amino-6-methylamino-pyrimidin-4-yl)-5-benzyl-pyrrolidin-2-one] |  | 
 |  | 1 to 100 nM |  |  | 1 to 100 nM | CNc1cc(N2CC(Cc3ccccc3)CC2=O)nc(N)n1 (stereo not shown) [Example 115, 1-(2-Amino-6-methylamino-pyrimidin-4-yl)-4-benzyl-pyrrolidin-2-one] |  | 
 |  | < 1 nM |  |  | < 1 nM | CNc1cc(N2CCCC[C@H]2Cc2ccc(OC)cc2)nc(N)n1 [Example 117, 6-[(S)-2-(4-Methoxy-benzyl)-piperidin-1-yl]-N4-methyl-pyrimidine-2,4-diamine] |  | 
 |  | 1 to 100 nM |  |  | 1 to 100 nM | C=CC(=O)Nc1ccc(CCNC(=O)C2CN(c3cc(NC)nc(N)n3)C2)cc1 [Example 118, 1-(2-Amino-6-methylamino-pyrimidin-4-yl)-azetidine-3-carboxylic acid [2-(4-acryloylamino-phenyl)-ethyl]-amide] |  | 

Further lines, the molecule ahead of its results:

Compound | Microsomal stability mouse [1] | Microsomal stability human [2] | IC50 [3, 6] | IC50 ([3]; Table 2) | solubility at 24 h [4] | Kd [5] | residence time ([5]; read-out: Residence time) | residence time [5]
CNc1cc(N2CCC(F)(F)C2)nc(N)n1 [Example 3, 6-(3,3-difluoro-pyrrolidin-1-yl)-N^4-methyl-pyrimidine-2,4-diamine] | 43 μl/min/mg prot. | <10 μl/min/mg prot. | < 1 nM | < 1 nM | > 1000 µg/mL |  |  | 
NC(=O)C1CCN(c2cc(NC3CC3)nc(N)n2)C1 (stereo not shown) [Example 5, 1-(2-amino-6-cyclopropylamino-pyrimidin-4-yl)-pyrrolidine-3-carboxylic acid amide-formate] | 13 μl/min/mg prot. | <10 μl/min/mg prot. | 1 to 100 nM | 7 nM | > 1000 µg/mL |  |  | 
CNc1cc(N2CCC(O)C2)nc(N)n1 (stereo not shown) [Example 7, 1-(2-amino-6-methylamino-pyrimidin-4-yl)-pyrrolidin-3-ol-formate] | <10 μl/min/mg prot. | <10 μl/min/mg prot. | 1 to 100 nM | 1.3 nM | > 1000 µg/mL |  |  | 
CNc1cc(N2CCC[C@@H]2CO)nc(N)n1 [Example 8, [(R)-1-(2-amino-6-methylamino-pyrimidin-4-yl)-pyrrolidin-2-yl]-methanol-formate] | <10 μl/min/mg prot. | <10 μl/min/mg prot. | 1 to 100 nM | 2 nM | > 1000 µg/mL |  |  | 
CNc1cc(N2CCCC[C@@H]2Cc2ccc(OC)cc2)nc(N)n1 [Example 116, 6-[(R)-2-(4-Methoxy-benzyl)-piperidin-1-yl]-N4-methyl-pyrimidine-2,4-diamine] |  |  | < 1 nM |  |  |  | ≥ 10 min | 
CNc1cc(N2CCC(C(=O)NCCc3ccc(S(=O)(=O)F)cc3)CC2)nc(N)n1 [Example 120, 4-(2-{[1-(2-Amino-6-methylamino-pyrimidin-4-yl)-piperidine-4-carbonyl]-amino}-ethyl)-benzenesulfonyl fluoride] |  |  | < 1 nM |  |  |  |  | ≥ 10 min
